# In patent US7714014B2, “Targeting GLI proteins in human cancer by small molecules” (The Regents of the University of California, priority 2005, dated 2010):
# “Also recorded” adds a separate entry of the source.
# What was measured:
# [1] = test system: A549 (NSCLC); test: Apoptosis analysis (Annexin V FITC, flow cytometry); type: cell-based, human; details: 3 days
# Description: (§1) Apoptosis was analyzed by using an Annexin V FITC Apoptosis Detection Kit (Biosource, Camarillo, Calif.), according to the manufacturer's protocol. After treatment with different small molecule compounds at various concentrations for about 3 days, cells were harvested by trypsinization, stained and immediately analyzed by flow cytometry (FACScan; Decton Dickinson, Franklin Lake, N.J.). Early apoptotic cells with exposed phosphatidylserine but intact cell membranes will bind to Annexin V-FITC, but not propidium iodide (PI). Cells in necrotic or late apoptotic stages will be labeled with both Annexin V-FITC and PI. “% apoptotic cells” or “% apoptosis” refers to the combined early and late apoptotic cells.
# Flow cytometry was also used to examine apoptosis in several NSCLC cell lines after treatment with small molecule compounds of the invention.
# Dose titration experiments of small molecule compound FN1-8 was performed using the NSCLC cell lines A549, H358, and H322. A 549, H358, and H322 cells were plated in 6-well plates and incubated with DM SO (control) or 7.5 μM, 10 μM, 15 μM, 20 μM, and 30 μM of FN1-8, respectively, for 3 days. A dramatic and dose-dependent cell killing in these cell lines was observed when FN1-8 was added at 15 μM or more. FN1-8 induced cell killing in A549 and […] at slightly lower concentrations than in H322 cells (data not shown). After 3 days, approximately 28% of the A549 cells and 58% of H358 underwent apoptosis when incubated with 20 μM FN1-8 (Table 3).
# [2] = test system: H838 (NSCLC); test: as above; type: cell-based, human; details: 3 days
# Description: as §1
# [3] = test system: Normal muscle cells; test: as above; type: cell-based, human; details: 3 days
# Description: as §1
# In addition, apoptosis induction after the treatment of different doses of FN1-5 or FN1-8 in normal human muscle cells was examined by flow cytometry. Normal muscle cells were plated in 6-well plates and incubated with 1, 10, 30, and 50 μM of each compound for 3 days, as above.
# [4] = test system: Tcf-mediated gene transcription (canonical Wnt signaling) in colon cancer cell line SW480; test: TOPFLASH (TOP/FOP) assay; type: cell-based, human
# Description: Cells were plated in 12-well plates. The TOPFLASH or FOPFLASH reporter plasmid (Upstate; Charlottesville, Va.) was transfected transiently into cells as described above. Tcf-mediated gene transcription was determined by the ratio of pTOPFLASH:pFOPFLASH luciferase activity, each was normalized to luciferase activities of the pRL-TK reporter (co-transfected internal control). All experiments were performed in triplicate, and repeated three times.
# Regulation of TOP/FOP activity by the same compounds as described above was also analyzed in the colon cancer cell line SW480.
# [5] = test system: human SOCS3 promoter in NSCLC cell line A549; test: SOCS3 promoter-luciferase reporter assay; type: cell-based; details: A549, 30 μM, 18-24 hours
# Description: One day before transfection, cells (1×10^5) were plated in 12-well plates with growth medium without antibiotics. When cells reached 80-90% of confluence they were co-transfected using 0.5 μg of each promoter construct in pGL3Basic vector and 0.025 μg pRL-TK Vector (Promega; Madison, Wis.) containing Renilla Luciferase as an internal control for the transformation efficiency. Lipofectamine 2000™ (Invitrogen Life Technologies) was used to mediate transfection for about 6 hours. Then the medium was replaced with fresh medium containing various small molecule compounds at a concentration of 30 μM, and the resulting cells were cultured for an additional 18-24 hours and subjected to luciferase assay. Briefly, cells were lysed in a lysis buffer and Firefly and Renilla Luciferase activities in cells of each well, were measured using Dual-Luciferase Assay System (Promega) and an illuminometer. The measured luciferase activities were normalized to pRL-TK Vector activity and were given relative to the basal activity of empty pGL3-Basic Vector, which was set to unity. The data shown represent mean values (±S.D.). All measurements were performed in triplicate and repeated in at least three independent experiments. The human Wnt-2 promoter-luciferase construct, the human SOCS3 promoter-Luciferase construct and the human Gremlin promoter-luciferase construct were cloned and characterized in the laboratory of Dr. Jablons at the University of California, San Francisco (San Francisco, Calif.; He et al., Biochem Biophy Res Comm, 2003; and unpublished data). The 6GLI-TKO-luciferase construct (containing 6 repeats of consensus GLI DNA binding sequence) was kindly provided by Dr. Matthias Hebrok's laboratory at the University of California, San Francisco (San Francisco, Calif.).
# As a third specificity test for the small molecule compounds of the present invention, the ability of these compounds to regulate the expression of genes that are not down-stream targets of the Gli activation was analyzed. SOCS3, an inhibitor and down-stream target gene of JAK/STAT pathway was chosen for this experiment. Expression of SOCS3 is not under control of Gli and/or Wnt activation. Furthermore, no GLI and TCF binding sites were found in the human SOCS3 promoter cloned in the laboratory of Dr. Jablons (University of California, San Francisco; data not shown). Thus, SOCS3 promoter-luciferase reporter activity was measured after the treatment of the NSCLC cell line A549 with small molecule compounds FN1-5, FN1-7, FN1-8, and FN1-9U.
Compound,"% of apoptotic cells ([1]; A549, 10 μM)","% of apoptotic cells ([1]; A549, 100 μM)","% of apoptotic cells ([2]; H838, 30 μM)","% of apoptotic cells ([2]; H838, 50 μM)",% of apoptotic cells ([3]; 10 μM),% of apoptotic cells ([3]; 30 μM),% of apoptotic cells ([3]; 50 μM),TOP/FOP activity [4],SOCS3 promoter activity [5],"% of apoptotic cells ([2]; H838, 10 μM)",reduction of TOP/FOP activity [4]
"O=C(NCCCCCO)C1C(c2ccccc2)=NN(c2ccccc2)C1c1ccccc1 (stereo not drawn) [FN1-5, N-(5-Hydroxypentyl)-1,3,5-triphenyl-4,5-dihydro-pyrazole-4-carboxyamide]",9.4%,30.0%,14.2%,20.0%,7.5%,7.6%,8.8%,lesser effect,inactive; also recorded: do not regulate SOCS3 promoter activity,–,–
"O=C(NCCc1ccc(O)cc1)C1C(c2ccccc2)=NN(c2ccccc2)C1c1ccccc1 (stereo not drawn) [FN1-8, N-(2-(4-Hydroxyphenyl)ethyl)-1,3,5-triphenyl-4,5-dihydro-pyrazole-4-carboxyamide]",12.5%,–,18.3%,82.3%,7.8%,9.3%,9.7%,–,inactive; also recorded: do not regulate SOCS3 promoter activity,10.6%,about 32%
